# Literature values in patent US20060074057A1, “Use of chenodeoxycholic acid for reducing adipose tissue” (priority 2004, published 2006).
# Molecular target: 11-beta-hydroxysteroid dehydrogenase type 1 (11BHSD1) (Homo sapiens, UniProt P28845)
# Conditions: "has been shown"; no data or method given
# Sequence of 11-beta-hydroxysteroid dehydrogenase type 1 (11BHSD1) (P28845 whole entry): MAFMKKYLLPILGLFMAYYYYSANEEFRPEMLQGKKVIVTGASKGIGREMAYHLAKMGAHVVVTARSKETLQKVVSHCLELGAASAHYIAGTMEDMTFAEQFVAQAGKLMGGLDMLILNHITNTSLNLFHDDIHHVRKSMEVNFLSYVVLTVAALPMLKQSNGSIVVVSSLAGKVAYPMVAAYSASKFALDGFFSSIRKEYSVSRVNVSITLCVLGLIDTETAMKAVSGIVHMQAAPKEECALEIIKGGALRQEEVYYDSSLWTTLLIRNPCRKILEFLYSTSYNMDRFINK
structure (smiles),measurement,value
"CC(CCC(=O)O)C1CCC2C3C(CC[C@]12C)[C@@]1(C)CC[C@@H](O)C[C@H]1C[C@H]3O (stereo partly drawn) [Chenodeoxycholic acid, 3-alpha,7-alpha-dihydroxy-5-beta-cholanic acid]",inhibition of 11BHSD1 (result in words),selective inhibitor
